Measurements as given in patent publication US11129386B2, “Microbiocidal quinoline (thio)carboxamide derivatives” (SYNGENTA PARTICIPATIONS AG, priority 2017, dated 2021).

Tests used:
[1] = tested on: Botryotinia fuckeliana (Botrytis cinerea); test: Botryotinia fuckeliana (Botrytis cinerea)/liquid culture (Gray mould); type: cell-based; conditions: liquid culture, growth inhibition photometrically 3-4 days after application, compared to untreated control
[2] = tested on: Glomerella lagenarium (Colletotrichum lagenarium); test: Glomerella lagenarium (Colletotrichum lagenarium)/liquid culture (Anthracnose); type: cell-based; conditions: Colletotrichum orbiculare, 72 h, liquid culture, growth inhibition photometrically 3-4 days after application, compared to untreated control
Fusarium culmorum = test: microbe, parasite or virus in culture; type: cell-based; conditions: read-out: control of Fusarium culmorum
[3] = tested on: Magnaporthe grisea (Pyricularia oryzae); test: microbe, parasite or virus in culture; type: cell-based; conditions: read-out: control of Magnaporthe grisea

SMILES	inhibition of growth at 20 ppm [1] [%]	inhibition of growth at 20 ppm [2] [%]	inhibition of growth at 20 ppm (Fusarium culmorum) [%]	inhibition of growth at 20 ppm [3] [%]	melting point [°C]
CC1(CC(C)(CC(F)(F)F)C(=O)Nc2cnc3c(F)cccc3c2)CC1 (centres unmarked) [Compound E1, 4,4,4-trifluoro-N-(8-fluoro-3-quinolyl)-2-methyl-2-[(1-methylcyclopropyl)methyl]butanamide]	≥ 80	≥ 80	≥ 80	≥ 80	60 to 70
C/C=C(\C)CC(C)(CC(C)C)C(=O)Nc1cnc2c(F)cccc2c1 (centres unmarked) [Compound E2]	≥ 80	≥ 80	≥ 80	≥ 80	135 to 137
CC(C)=C(C)CC(C)(CC(C)C)C(=O)Nc1cnc2c(F)cccc2c1 (centres unmarked) [Compound E3]	≥ 80	≥ 80	≥ 80	≥ 80	–
CC(C)=C(F)CC(C)(CC(C)C)C(=O)Nc1cnc2ccccc2c1 (centres unmarked) [Compound E4]	≥ 80	≥ 80	≥ 80	≥ 80	–
CC(C)CC(C)(CC1CC1)C(=O)Nc1cnc2c(F)cccc2c1 (centres unmarked) [Compound E5]	≥ 80	≥ 80	≥ 80	≥ 80	–
CC(C)CC(C#N)(CC(C)C)C(=O)Nc1cnc2c(F)cccc2c1 [Compound E6]	≥ 80	≥ 80	≥ 80	≥ 80	–
C=CCC(C)(CC(C)C)C(=O)Nc1cnc2c(F)cccc2c1 (centres unmarked) [Compound E7]	≥ 80	≥ 80	≥ 80	≥ 80	–
C=C(C)CC(C)C(=O)Nc1cnc2c(F)cccc2c1 (centres unmarked) [Compound E9]	≥ 80	≥ 80	≥ 80	–	–
CC(C)=C(F)CC(CC(C)C)C(=O)Nc1cnc2c(F)cccc2c1 (centres unmarked) [Compound E10]	≥ 80	≥ 80	≥ 80	≥ 80	103 to 105
CC(CC1CCCCC1)C(=O)Nc1cnc2c(F)cccc2c1 (centres unmarked) [Compound E11]	≥ 80	≥ 80	≥ 80	≥ 80	179 to 181
C=C(Cl)CC(C)(CC1CCCCC1)C(=O)Nc1cnc2c(F)cccc2c1 (centres unmarked) [Compound E12]	≥ 80	≥ 80	≥ 80	≥ 80	–
Cc1c(NC(=O)C(C)CC(C)C)cnc2c(F)cccc12 (centres unmarked) [Compound E13]	≥ 80	≥ 80	≥ 80	–	–
CC(CC(F)(F)F)C(=O)Nc1cnc2c(F)cccc2c1 (centres unmarked) [Compound E14]	≥ 80	≥ 80	≥ 80	–	–
